pKi: −log10 of the molar value.
Columns and labels:
[1] = molecular target: T1, recombinant human ALK5 (TGF-βR1) protein (Homo sapiens, UniProt P36897); assay: Biochemical ALK5 (TGF-βR1) assay to measure pKi (LANCE Ultra ULight kinase assay); conditions: apparent pKi, converted from pIC50 using the Cheng-Prusoff equation
T1 construct: purchased Life Technologies PR9075A
T1 sequence (P36897 34-503): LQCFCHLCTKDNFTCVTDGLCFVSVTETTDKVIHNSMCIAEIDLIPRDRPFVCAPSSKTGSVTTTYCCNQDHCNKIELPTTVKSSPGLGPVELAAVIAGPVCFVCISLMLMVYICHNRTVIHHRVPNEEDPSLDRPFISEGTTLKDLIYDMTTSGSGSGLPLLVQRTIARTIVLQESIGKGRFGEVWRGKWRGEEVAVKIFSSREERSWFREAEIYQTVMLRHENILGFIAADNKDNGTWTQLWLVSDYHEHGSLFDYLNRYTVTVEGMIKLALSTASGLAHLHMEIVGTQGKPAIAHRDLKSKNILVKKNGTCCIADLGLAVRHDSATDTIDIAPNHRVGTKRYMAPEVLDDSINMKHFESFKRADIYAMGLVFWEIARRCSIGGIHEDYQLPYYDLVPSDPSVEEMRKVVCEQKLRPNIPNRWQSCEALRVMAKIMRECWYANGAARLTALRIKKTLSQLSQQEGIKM
In short: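 TR-FRET kinase format: compound dose range 10 μM–25 pM equilibrated 60 min with human ALK5 and ULight-labelled topoisomerase 2α peptide in HEPES/MgCl2 buffer pH 7.5 with DTT. Reaction started with ATP (125 μM stock, 5× final), 60 min at 37° C, stopped with EDTA/Eu-anti-phospho antibody; pKi derived from pIC50 via Cheng-Prusoff.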

[2] = system: TGF-β-stimulated SMAD3 phosphorylation in BEAS-2B cells; assay: Cellular ALK5 potency assay, inhibition of TGF-β stimulated pSMAD3 formation in BEAS-2B cells; assay type: cell-based; conditions: Homo sapiens, inhibition of TGF-β (10 ng/mL) stimulated pSMAD3 formation, 1 hour compound incubation, read-out: BEAS2B pIC50 (converted)
In short: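 Phospho-SMAD3 was quantified by AlphaLISA in lysates of human lung epithelial BEAS-2B cells. Compound was added 1 h (37 °C, HEPES/BSA-supplemented HBSS) before a 30 min challenge with 10 ng/mL TGF-β. Values are pIC50 relative to stimulated cells without compound.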

pKi [1] | SMILES | IC50 [2] [nM]
9.50 to 10.40 | Fc1ccc(Cl)cc1-c1n[nH]cc1-c1ccc2ncc(C3=CCNC3)cc2n1 [Compound 1-93, 2-[3-(5-chloro-2-fluoro-phenyl)-1H-pyrazol-4-yl]-7-(2,5-dihydro-1H-pyrrol-3-yl)-1,5-naphthyridine] | ≤ 20
9.50 to 10.40 | NCCn1cc(-c2cnc3ccc(-c4nc[nH]c4-c4ccc(F)c(F)c4)cc3c2)cn1 [Compound 23-1, 2-(4-(6-(5-(3,4-difluorophenyl)-1H-imidazol-4-yl)quinolin-3-yl)-1H-pyrazol-1-yl)ethan-1-amine] | 25.1 to 158
9.50 to 10.40 | Fc1ccc(-c2n[nH]cc2-c2ccc3ncc(C4=CCC(NCc5ccccc5)CC4)cc3n2)cc1F (stereo not shown) [Compound 8-26, N-benzyl-4-[6-[3-(3,4-difluorophenyl)-1H-pyrazol-4-yl]-1,5-naphthyridin-3-yl]cyclohex-3-en-1-amine] | 25.1 to 158
8.50 to 9.40 | NC1CCN(c2cnc3ccc(-c4c[nH]nc4-c4ccccc4F)nc3c2)C1 (stereo not shown) [Compound 11-2, 1-(6-(3-(2-fluorophenyl)-1H-pyrazol-4-yl)-1,5-naphthyridin-3-yl)pyrrolidin-3-amine] | 25.1 to 158
9.50 to 10.40 | CN(C)C1CN(c2cnc3ccc(-c4c[nH]nc4-c4cc(Cl)c(F)cc4F)nc3c2)C1 [Compound 6-19, 1-[6-[3-(5-chloro-2,4-difluoro-phenyl)-1H-pyrazol-4-yl]-1,5-naphthyridin-3-yl]-N,N-dimethyl-azetidin-3-amine] | 25.1 to 158
8.50 to 9.40 | CC(C)N1CCCN(c2cnc3ccc(-c4c[nH]nc4-c4cc(Cl)ccc4F)nc3c2)CC1C (racemic) [Compound 1-82, 2-[3-(5-chloro-2-fluoro-phenyl)-1H-pyrazol-4-yl]-7-[rac-(3S)-4-isopropyl-3-methyl-1,4-diazepan-1-yl]-1,5-naphthyridine] | 25.1 to 158
9.50 to 10.40 | Fc1cc(F)c(-c2n[nH]cc2-c2ccc3ncc(-c4cn(Cc5cnc6c(c5)CNCC6)nn4)cc3n2)cc1Cl [Compound 6-63, 2-[3-(5-chloro-2,4-difluoro-phenyl)-1H-pyrazol-4-yl]-7-[1-(5,6,7,8-tetrahydro-1,6-naphthyridin-3-ylmethyl)triazol-4-yl]-1,5-naphthyridine] | 25.1 to 158
9.50 to 10.40 | C[C@@H]1CN(CCNc2cnc3ccc(-c4c[nH]nc4-c4cc(Cl)ccc4F)nc3c2)C[C@H](C)N1 [Compound 1-1, 6-(3-(5-chloro-2-fluorophenyl)-1H-pyrazol-4-yl)-N-(2-((3S,5R)-3,5-dimethylpiperazin-1-yl)ethyl)-1,5-naphthyridin-3-amine] | 25.1 to 158
7.50 to 8.40 | CC(C)N1CCN(CCNc2cnc3ccc(-c4nc[nH]c4-c4ccc(F)c(F)c4)nc3c2)CC1 [Compound 9-2, 6-[5-(3,4-difluorophenyl)-1H-imidazol-4-yl]-N-[2-(4-isopropylpiperazin-1-yl)ethyl]-1,5-naphthyridin-3-amine] | 25.1 to 158
≥ 10.50 | CCOC(=O)Cn1cc(-c2cnc3ccc(-c4c[nH]nc4-c4cc(Cl)ccc4F)nc3c2)nn1 [Compound 1-103, ethyl 2-[4-[6-[3-(5-chloro-2-fluoro-phenyl)-1H-pyrazol-4-yl]-1,5-naphthyridin-3-yl]triazol-1-yl]acetate] | 25.1 to 158
8.50 to 9.40 | Fc1ccc(Cl)cc1-c1nc2ccccn2c1-c1ccc2ncc(-c3cn[nH]c3)cc2c1 [Compound 19-3, 6-[2-(5-chloro-2-fluoro-phenyl)imidazo[1,2-a]pyridin-3-yl]-3-(1H-pyrazol-4-yl)quinoline] | 25.1 to 158
9.50 to 10.40 | Fc1cc(F)c(-c2n[nH]cc2-c2ccc3ncc(N4CCC(N5CCCCC5)C4)cc3n2)cc1Cl (racemic) [Compound 6-21, 2-[3-(5-chloro-2,4-difluoro-phenyl)-1H-pyrazol-4-yl]-7-[rac-(3R)-3-(1-piperidyl)pyrrolidin-1-yl]-1,5-naphthyridine] | 25.1 to 158
9.50 to 10.40 | Fc1cc(F)c(-c2[nH]cnc2-c2ccc3ncc(NCCN4CCNCC4)cc3n2)cc1Cl [Compound 7-1, 6-(5-(5-chloro-2,4-difluorophenyl)-1H-imidazol-4-yl)-N-(2-(piperazin-1-yl)ethyl)-1,5-naphthyridin-3-amine] | 25.1 to 158
8.50 to 9.40 | COC(=O)[C@H]1CN(c2cnc3ccc(-c4c[nH]nc4-c4cc(Cl)c(F)cc4F)nc3c2)CCN1 [Compound 6-27, methyl (2R)-4-[6-[3-(5-chloro-2,4-difluoro-phenyl)-1H-pyrazol-4-yl]-1,5-naphthyridin-3-yl]piperazine-2-carboxylate] | 25.1 to 158
8.50 to 9.40 | Fc1cc(F)c(-c2n[nH]cc2-c2ccc3ncc(NCC4CCCN4)cc3n2)cc1Cl (racemic) [Compound 6-73, 6-[3-(5-chloro-2,4-difluoro-phenyl)-1H-pyrazol-4-yl]-N-[[rac-(2S)-pyrrolidin-2-yl]methyl]-1,5-naphthyridin-3-amine] | 25.1 to 158
9.50 to 10.40 | CN(CC1CNC1)c1cnc2ccc(-c3nc[nH]c3-c3cc(Cl)c(F)cc3F)nc2c1 [Compound 7-6, N-(azetidin-3-ylmethyl)-6-[5-(5-chloro-2,4-difluoro-phenyl)-1H-imidazol-4-yl]-N-methyl-1,5-naphthyridin-3-amine] | 25.1 to 158
9.50 to 10.40 | Fc1ccc(Cl)cc1-c1[nH]cnc1-c1ccc2ncc(-c3cn[nH]c3)cc2n1 [Compound 2-17, 2-[5-(5-chloro-2-fluoro-phenyl)-1H-imidazol-4-yl]-7-(1H-pyrazol-4-yl)-1,5-naphthyridine] | 25.1 to 158
8.50 to 9.40 | Fc1cc(F)c(-c2n[nH]cc2-c2ccc3ncc(-c4nnn5c4NCCC5)cc3n2)cc1Cl [Compound 6-47, 2-[3-(5-chloro-2,4-difluoro-phenyl)-1H-pyrazol-4-yl]-7-(4,5,6,7-tetrahydrotriazolo[1,5-a]pyrimidin-3-yl)-1,5-naphthyridine] | 25.1 to 158
8.50 to 9.40 | Fc1ccc(Cl)cc1-c1n[nH]cc1-c1ccc2ncc(-c3nc(C(F)(F)F)n4c3CNCC4)cc2n1 [Compound 1-119, 2-[3-(5-chloro-2-fluoro-phenyl)-1H-pyrazol-4-yl]-7-[3-(trifluoromethyl)-5,6,7,8-tetrahydroimidazo[1,5-a]pyrazin-1-yl]-1,5-naphthyridine] | 25.1 to 158
8.50 to 9.40 | CC(C)N1CCN(CCNc2cnc3ccc(-c4nn[nH]c4-c4cc(Cl)ccc4F)cc3c2)CC1 [Compound 18-3, 6-(5-(5-chloro-2-fluorophenyl)-1H-1,2,3-triazol-4-yl)-N-(2-(4-isopropylpiperazin-1-yl)ethyl)quinolin-3-amine] | 25.1 to 158
9.50 to 10.40 | Cc1oc(=O)oc1CN1CCN(c2cnc3ccc(-c4nc[nH]c4-c4cc(Cl)ccc4F)nc3c2)CC1 [Compound 2-37, 4-[[4-[6-[5-(5-chloro-2-fluoro-phenyl)-1H-imidazol-4-yl]-1,5-naphthyridin-3-yl]piperazin-1-yl]methyl]-5-methyl-1,3-dioxol-2-one] | 200 to 1260
9.50 to 10.40 | CNCCn1ccc(-c2cnc3ccc(-c4nc[nH]c4-c4cc(Cl)ccc4F)nc3c2)n1 [Compound 2-16, 2-(3-(6-(5-(5-chloro-2-fluorophenyl)-1H-imidazol-4-yl)-1,5-naphthyridin-3-yl)-1H-pyrazol-1-yl)-N-methylethan-1-amine] | 25.1 to 158
9.50 to 10.40 | CC(C)N1CC[C@@H](N(C)c2cnc3ccc(-c4c[nH]nc4-c4cc(Cl)c(F)cc4F)nc3c2)C1 [Compound 6-37, (R)-6-(3-(5-chloro-2,4-difluorophenyl)-1H-pyrazol-4-yl)-N-(1-isopropylpyrrolidin-3-yl)-N-methyl-1,5-naphthyridin-3-amine] | 25.1 to 158
≥ 10.50 | CNC1CCN(c2cnc3ccc(-c4nc[nH]c4-c4cc(Cl)ccc4F)nc3c2)CC1 [Compound 2-9, 1-[6-[5-(5-chloro-2-fluoro-phenyl)-1H-imidazol-4-yl]-1,5-naphthyridin-3-yl]-N-methyl-piperidin-4-amine] | 25.1 to 158
8.50 to 9.40 | CN1CCC(Nc2cnc3ccc(-c4c[nH]nc4-c4cc(Cl)ccc4F)nc3c2)C1 (stereo not shown) [Compound 1-4, 6-[3-(5-chloro-2-fluoro-phenyl)-1H-pyrazol-4-yl]-N-(1-methylpyrrolidin-3-yl)-1,5-naphthyridin-3-amine] | 25.1 to 158
8.50 to 9.40 | O=C(O)[C@H]1CN(c2cnc3ccc(-c4nc[nH]c4-c4cc(Cl)ccc4F)nc3c2)CCN1 [Compound 2-28, (2R)-4-[6-[5-(5-chloro-2-fluoro-phenyl)-1H-imidazol-4-yl]-1,5-naphthyridin-3-yl]piperazine-2-carboxylic acid] | 200 to 1260
